According to patent US10214492B2, “Heterocyclic inhibitors of MCT4” (Vettore, LLC, priority 2016, dated 2019):

Columns and labels:
[1] = target: MCT4 (Homo sapiens (Human), UniProt O15427); assay: Assay 3: MCT4-mediated lactate transport in MDA-MB-231 breast cancer cells; type: cell-based; conditions: MDA-MB-231 cells; lactate transport
Experimental: (§1) 10 μL of a 30 mM DMSO stock of BCECF-AM ester (Life Technologies) is added and the cells are incubated at 37° C. for 5 min. The cells are pelleted (300 g, 5 min), washed once with 1 mL Tyrode's Solution, pH 7.4, re-pelleted (300 g, 5 min), and resuspended in 1 mL Tyrode's Solution, pH 7.4.
MCT4 activity may be assessed by monitoring the intracellular pH change that accompanies lactate/proton symport, using the pH-sensitive fluorescent dye 2′,7′-bis-(carboxyethyl)-5(6)-carboxyfluorescein (BCECF), in a manner similar to that previously reported for MCT1 and MCT4. The following is an exemplary procedure for assaying MCT4 activity of the compounds of Formula (I).

[2] = target: MCT1 (Homo sapiens (Human), UniProt P53985); assay: Assay 4: MCT1-mediated lactate transport in BT20 breast cancer cells; type: cell-based; conditions: Table 27
Experimental: as §1
Assay 4: MCT1-Mediated Lactate Transport in BT20 Breast Cancer Cells.
Preparation of BCECF loaded cells are as described for Assay 1. Lactate transport assay is as described for Assay 1, except 10 mM L-lactate (rather than 50 mM) is added.

MCT1, sequence (P53985 whole entry): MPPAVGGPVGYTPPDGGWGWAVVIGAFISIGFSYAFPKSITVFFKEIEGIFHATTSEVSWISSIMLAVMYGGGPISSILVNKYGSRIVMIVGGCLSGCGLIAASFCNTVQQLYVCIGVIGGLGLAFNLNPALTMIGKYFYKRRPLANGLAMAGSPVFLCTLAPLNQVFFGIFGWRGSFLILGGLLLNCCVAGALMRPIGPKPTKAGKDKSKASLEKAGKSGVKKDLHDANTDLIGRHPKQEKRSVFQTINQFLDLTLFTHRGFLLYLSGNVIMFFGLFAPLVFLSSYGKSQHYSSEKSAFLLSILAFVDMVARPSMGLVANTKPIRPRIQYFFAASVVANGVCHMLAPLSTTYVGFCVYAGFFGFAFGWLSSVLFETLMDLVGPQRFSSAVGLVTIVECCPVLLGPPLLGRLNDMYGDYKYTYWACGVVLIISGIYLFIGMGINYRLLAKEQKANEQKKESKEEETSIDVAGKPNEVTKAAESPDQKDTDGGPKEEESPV
MCT1, sequence (P35613 140-385 partner): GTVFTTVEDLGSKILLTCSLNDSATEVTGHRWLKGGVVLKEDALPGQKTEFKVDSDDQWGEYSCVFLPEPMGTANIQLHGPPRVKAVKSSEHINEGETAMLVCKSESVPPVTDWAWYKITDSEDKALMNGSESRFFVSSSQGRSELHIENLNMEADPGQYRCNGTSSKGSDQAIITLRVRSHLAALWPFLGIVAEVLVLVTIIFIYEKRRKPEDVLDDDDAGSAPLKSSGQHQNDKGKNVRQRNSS
MCT4, sequence (O15427 whole entry, looked up): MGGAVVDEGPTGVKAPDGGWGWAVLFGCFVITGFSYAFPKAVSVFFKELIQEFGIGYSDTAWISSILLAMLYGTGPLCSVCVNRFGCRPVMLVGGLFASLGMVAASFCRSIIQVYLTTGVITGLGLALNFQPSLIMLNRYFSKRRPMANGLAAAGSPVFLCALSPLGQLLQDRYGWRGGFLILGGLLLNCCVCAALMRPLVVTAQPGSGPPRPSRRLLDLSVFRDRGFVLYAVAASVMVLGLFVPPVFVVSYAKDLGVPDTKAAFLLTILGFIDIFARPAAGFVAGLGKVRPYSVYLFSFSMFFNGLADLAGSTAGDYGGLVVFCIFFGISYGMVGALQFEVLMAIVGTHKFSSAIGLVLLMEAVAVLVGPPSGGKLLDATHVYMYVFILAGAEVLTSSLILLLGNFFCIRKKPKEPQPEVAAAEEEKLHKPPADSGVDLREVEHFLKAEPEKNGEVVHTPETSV
MCT4, sequence (P35613 whole entry partner, looked up): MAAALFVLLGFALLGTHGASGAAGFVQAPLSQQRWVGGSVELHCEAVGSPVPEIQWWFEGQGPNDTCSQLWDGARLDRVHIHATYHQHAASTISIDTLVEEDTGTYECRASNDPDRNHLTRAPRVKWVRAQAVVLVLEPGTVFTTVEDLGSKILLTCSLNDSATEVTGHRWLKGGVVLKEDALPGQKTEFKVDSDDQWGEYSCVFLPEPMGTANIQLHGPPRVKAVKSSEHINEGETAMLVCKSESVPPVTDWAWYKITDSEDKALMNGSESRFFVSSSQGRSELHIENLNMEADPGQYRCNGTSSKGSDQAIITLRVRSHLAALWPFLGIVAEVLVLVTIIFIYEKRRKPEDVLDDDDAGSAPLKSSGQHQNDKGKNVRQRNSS

SMILES	IC50 [1]	IC50 [2]
CC(C)(OCc1cc(-c2cccc(OC3COC3)c2)n(-c2ccccc2Cl)n1)C(=O)O [Example 176, 2-([1-(2-Chlorophenyl)-5-[3-(oxetan-3-yl-oxy)phenyl]-1Hpyrazol-3-yl]methoxy)-2-methylpropanoic acid]	180 nM	> 100000 nM
CCOc1cccc(-c2cc(COC(C)(C)C(=O)O)nn2Cc2ccccc2OCC)c1 [Example 199, 2-([5-(3-Ethoxyphenyl)-1-[(2-ethoxy-phenyl)methyl]-1H-pyrazol-3-yl]methoxy)-2-methylpropanoic acid]	9.6 nM	34000 nM
CC(C)(OCc1cc(-c2ccc(OC3CC3)s2)n(Cc2ccccc2Cl)n1)C(=O)O [Example 131, 2-([1-[(2-Chlorophenyl)methyl]-5-(5-cyclopropoxythien-2-yl)-1H-pyrazol-3-yl]methoxy)-2-methylpropanoic acid]	225 nM	650 nM
COc1ccccc1Cn1nc(COC(C)(C)C(=O)O)cc1-c1cccc(OC2CC2)c1 [Example 111, 2-([5-(3-Cyclopropoxyphenyl)-1-[(2-methoxyphenyl)methyl]-1H-pyrazol-3-yl)methoxy)-2-methylpropanoic acid]	7.9 nM	32000 nM
Cn1ncc2cc(-c3cc(COC(C)(C)C(=O)O)nn3Cc3ccccc3Cl)ccc21 [Example 209, 2-([1-[(2-Chlorophenyl)methyl]-5-(1-methyl-1H-indazol-5-yl)-1H-pyrazol-3-yl]-methoxy)-2-methyl propanoic acid]	31 nM	95000 nM
COc1cccc(-c2cc(CCC(C)(C)C(=O)O)nn2Cc2ccccc2Cl)c1 [Example 144, 4-[1-[(2-chlorophenyl)methyl]-5-(3-methoxyphenyl)-1H-pyrazol-3-yl]-2,2-dimethylbutanoic Acid]	127 nM	2400 nM
CC(C)(OCc1cc(-c2cccc(OC3CC3)c2)n(-c2ccccc2N2CCCC2=O)n1)C(=O)O [Example 235, 2-([5-(3-Cyclopropoxyphenyl)-1-(2-(2-oxopyrrolidin-1-yl)phenyl]-1H-pyrazol-3-yl]methoxy)-2-methylpropanoic acid]	> 30000 nM	> 100000 nM
CC(C)COc1cccc(-c2cc(COC(C)(C)C(=O)O)nn2-c2ccccc2F)c1 [Example 106, 2-([1-(2-fluorophenyl)-5-[3-(2-methyl-propoxy)phenyl]-1H-pyrazol-3-yl)methoxy)-2-methylpropanoic acid]	12 nM	21000 nM
CCOc1ccccc1Cn1nc(COC(C)(C)C(=O)O)cc1-c1cccc(OC)c1 [Example 141, 2-([1-[(2-Ethoxyphenyl)methyl]-5-(3-methoxyphenyl)-1H-pyrazol-3-yl]methoxy)-2-methylpropanoic acid]	6.7 nM	33000 nM
CC[C@@H](OCc1cc(-c2cccc(OC)c2)n(Cc2ccccc2Cl)n1)C(=O)O [Example 123]	1500 nM	11000 nM
CCOc1ccccc1Cn1nc(COC(C)(C)C(=O)O)cc1-c1cccc(OC2CCC2)c1 [Example 210, 2-([5-(3-cyclobutoxyphenyl)-1-[(2-ethoxy-phenyl)methyl]-1H-pyrazol-3-yl]methoxy)-2-methylpropanoic acid]	2.4 nM	7300 nM
CCn1ncc2ccc(-c3cc(COC(C)(C)C(=O)O)nn3Cc3ccccc3Cl)cc21 [Example 151, Sodium 2-([1-[(2-chlorophenyl)methyl]-5-(1-ethyl-1H-indazol-6-yl)-1H-pyrazol-3-yl]methoxy)-2-methylpropanoate]	3.6 nM	70000 nM
CC(C)(OCc1cc(-c2cccc(OC3COC3)c2)n(-c2ccccc2F)n1)C(=O)O [Example 160, 2-([1-(2-Fluorophenyl)-5-[3-(oxetan-3-yl-oxy)phenyl]-1H-pyrazol-3-yl]methoxy)-2-methylpropanoic acid]	270 nM	> 100000 nM
CCOc1cc(OCC)cc(-c2cc(COC(C)(C)C(=O)O)nn2-c2ccccc2C)c1 [Example 162, 2-([5-(3,5-Diethoxyphenyl)-1-(2-methyl-phenyl)-1H-pyrazol-3-yl]methoxy)-2-methylpropanoic acid]	6.4 nM	34000 nM
CN(C)c1ccccc1-n1nc(COC(C)(C)C(=O)O)cc1-c1cccc(OC2CC2)c1 [Example 114, 2-([5-(3-cyclopropoxyphenyl)-1-[2-(dimethylamino)phenyl]-1H-pyrazol-3-yl]methoxy)-2-methylpropanoic acid]	4.3 nM	73000 nM

Further compounds by falling IC50 [1], results first:

IC50 [1]	IC50 [2]	SMILES
890 nM	> 100000 nM	Cn1cc(-c2cc(COC(C)(C)C(=O)O)nn2Cc2ccccc2Cl)cn1 [Example 205, 2-([1-[(2-Chlorophenyl)methyl]-5-(1-methyl-1H-pyrazol-4-yl)-1H-pyrazol-3-yl]-methoxy)-2-methylpropanoic acid]
195 nM	> 100000 nM	COc1cc(OC)cc(-c2cc(COC(C)(C)C(=O)O)nn2CCc2ccccc2)c1 [Example 212, 2-([5-(3,5-Dimethoxyphenyl)-1-(2-phenyl-ethyl)-1H-pyrazol-3-yl]methoxy)-2-methylpropanoic acid]
85 nM	99000 nM	CCn1ncc2ccc(-c3cc(COC(C)(C)C(=O)O)nn3-c3cccc4cnn(C)c34)cc21 [Example 165, 2-([5-(1-Ethyl-1H-indazol-6-yl)-1-(1-methyl-1H-indazol-7-yl)-1H-pyrazol-3-yl]-methoxy)-2-methylpropanoic acid]
29 nM	94000 nM	COc1ccccc1-n1nc(COC(C)(C)C(=O)O)cc1-c1cccc(OC2CC2)c1 [Example 112, 2-([5-(3-cyclopropoxyphenyl)-1-(2-methoxyphenyl)-1H-pyrazol-3-yl]methoxy)-2-methylpropanoic acid]
25 nM	43000 nM	CCOc1cccc(F)c1Cn1nc(COC(C)(C)C(=O)O)cc1-c1cc(OC)cc(OC)c1 [Example 252, 2-([5-(3,5-Dimethoxyphenyl)-1-[(2-ethoxy-6-fluorophenyl)methyl]-1H-pyrazol-3-yl]methoxy)-2-methylpropanoic acid]
23 nM	> 100000 nM	CC(C)COc1cccc(-c2cc(COC(C)(C)C(=O)O)nn2Cc2ccccn2)c1 [Example 247, 2-Methyl-2-([5-[3-(2-methylpropoxy)-phenyl]-1-([pyridin-2-yl]methyl)-1H-pyrazol-3-yl]methoxy)propanoic acid]
22 nM	> 33000 nM	CC(C)(OCc1cc(-c2cccc(OC3CC3)c2)n(-c2ccc(Cl)cc2Cl)n1)C(=O)O [Example 184, 2-([5-(3-Cyclopropoxyphenyl)-1-(2,4-dichlorophenyl)-1H-pyrazol-3-yl]methoxy)-2-methylpropanoic acid]
2.8 nM	16000 nM	CC(C)Oc1ccc(-c2cc(COC(C)(C)C(=O)O)nn2Cc2ccccc2Cl)s1 [Example 129, 2-([1-[(2-Chlorophenyl)methyl]-5-[5-(propan-2-yloxy)thien-2-yl]-1H-pyrazol-3-yl]methoxy)-2-methylpropanoic acid]
0.59 nM	33000 nM	CCn1ncc2cccc(-n3nc(COC(C)(C)C(=O)O)cc3-c3cccc(OCC(C)(C)C)c3)c21 [Example 172, 2-([5-(3-(2,2-Dimethylpropoxy)phenyl]-1-(1-ethyl-1H-indazol-7-yl)-1H-pyrazol-3-yl]-methoxy)-2-methylpropanoic acid]
